Legend:
Aromatase [1] = molecular target: T1, Aromatase (Homo sapiens, UniProt P11511); test: In vitro inactivation of human placental Cytochrome P450 19A1
T1 sequence (P11511 whole entry): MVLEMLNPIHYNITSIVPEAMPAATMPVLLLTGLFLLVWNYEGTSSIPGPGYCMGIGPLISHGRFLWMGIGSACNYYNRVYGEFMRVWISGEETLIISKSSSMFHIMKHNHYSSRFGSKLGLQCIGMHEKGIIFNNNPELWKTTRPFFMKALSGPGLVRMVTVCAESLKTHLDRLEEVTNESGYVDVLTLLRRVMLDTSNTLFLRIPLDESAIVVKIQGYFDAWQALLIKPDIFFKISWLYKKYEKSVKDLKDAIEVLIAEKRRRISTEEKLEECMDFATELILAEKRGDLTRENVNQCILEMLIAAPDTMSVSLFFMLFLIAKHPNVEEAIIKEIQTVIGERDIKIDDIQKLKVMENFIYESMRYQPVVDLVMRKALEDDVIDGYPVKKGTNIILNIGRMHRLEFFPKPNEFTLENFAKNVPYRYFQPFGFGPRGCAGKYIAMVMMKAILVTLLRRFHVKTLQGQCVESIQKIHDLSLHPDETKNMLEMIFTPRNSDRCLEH

Aromatase [2] = molecular target: T1, Aromatase; test: In vitro inhibition of Cytochrome P450 19A1
Aromatase [3] = molecular target: T1, Aromatase; test: Effective dose for inhibition of extragonadal estrogen production in baboons; format: functional; conditions: papio hamadryas; target entry is the homologue from another species

How did the kinact (Aromatase [1]) turn out when `C#CC[C@]12CCC(=O)C=C1CC[C@@H]1[C@@H]2CC[C@]2(C)C(=O)CC[C@@H]12` [PLOMESTANE] was run?
The kinact was 0.0011 s⁻¹.

And the Ki (Aromatase [2])?
Its Ki is 4 nM.

What about the ED50 (Aromatase [3]) of the same molecule?
The ED50 was 4 mg/kg.

`CC12CCC3C(CCC4=C(O)C(=O)CCC43C)C1CCCC2=O` (configuration not stated) was tested. Which kinact (Aromatase [1]) did it give?
Its kinact is 0.00041 s⁻¹.

And the Ki (Aromatase [2])?
Its Ki is 10.2 nM.

For `C[C@]12C=CC(=O)C=C1CC[C@@H]1[C@@H]2CC[C@]2(C)OC(=O)CC[C@@H]12` [TESTOLACTONE], which kinact (Aromatase [1]) is on record?
The kinact was 0.00036 s⁻¹.

And the Ki (Aromatase [2])?
The Ki was 35000 nM.

From ChEMBL document CHEMBL1124665, “Is there a case for P-450 inhibitors in cancer treatment?” (J Med Chem, 1989)
